Measurements taken from PubChem BioAssay AID1508612.

Experiment: passive permeability, PAMPA, ADME assay (AID 1508612)
Conditions: pH 7.4, 30.0 min, 50.0 µM

Going from `O=S(=O)(Nc1ccc(C2CCNCC2)cc1)c1ccc(NCc2cccc(Cl)c2O)cc1` to `COc1cccc(CNc2ccc(S(=O)(=O)Nc3ccccc3)cc2)c1O`, the Papp rises from 3.22 ×10⁻⁶ cm/s to greater than 1000 ×10⁻⁶ cm/s.

Compared with `C[C@H]1CN(C(=O)c2nn(C)c3ccccc23)C[C@@H]1c1nc(-c2cccnc2)no1`, `O=C(c1nc(-c2cccnc2)c2ccccn12)N1CCN(c2ncccn2)CC1` is higher in Papp: 982 ×10⁻⁶ cm/s for the first, greater than 1000 ×10⁻⁶ cm/s for the second.

First: O=C1Cc2cc(C(=O)c3ccco3)ccc2N1
Second: O=C1Nc2cc(Cl)ccc2Nc2cscc21
The Papp of the first is 14-fold lower: 35.2 ×10⁻⁶ cm/s for the first, 478 ×10⁻⁶ cm/s for the second.

Compared with `Cc1nn(CC(=O)NCCCN2CCC(N3CCCCC3)CC2)c(=O)c2cc(-c3ccccc3)nn12`, `Cc1nc(-c2ccccc2)cc([C@H]2CN3CC[C@H]2C[C@@H]3CNC2CCOCC2)n1` is 24-fold higher in Papp: 15.4 ×10⁻⁶ cm/s for the first, 369 ×10⁻⁶ cm/s for the second.

First: O=C1CCCC2=C1C(c1[nH]ncc1Cl)N=C(Nc1nc3ccc(F)cc3o1)N2 (centres undefined)
Second: Fc1ccc(Nc2nc(C3=CCNCC3)nc3ccccc23)cc1F
The Papp of the first is lower: 653 ×10⁻⁶ cm/s for the first, greater than 1000 ×10⁻⁶ cm/s for the second.

`COc1ccc(-c2csc(N3CCC(C(N)=O)CC3)n2)cc1` and `Cc1cccc(-c2csc(N3CCC(C(N)=O)CC3)n2)c1` are within 1.5-fold of each other in Papp: 646 ×10⁻⁶ cm/s for the first, 475 ×10⁻⁶ cm/s for the second.

`CCN(CC)C(=O)c1sc2c(c1C)c(=O)n(Cc1ccccc1)c(=O)n2CC(=O)Nc1ccc(OC)cc1` and `CC(=O)N1CCc2c(sc3c2c(=O)n(-c2ccccc2)c(=O)n3Cc2cccc(C(F)(F)F)c2)C1` cannot be ordered by Papp: greater than 1000 ×10⁻⁶ cm/s for the first, greater than 1000 ×10⁻⁶ cm/s for the second.

Going from `Cc1ccc(S(=O)(=O)Nc2ccccc2C(=O)Nc2ccc(-c3ccccc3)nc2)cc1` to `O=C(Nc1ccc(S(=O)(=O)Nc2nc(-c3ccccc3)cs2)cc1)c1ccc2ccccc2c1`, the Papp falls from 54.3 ×10⁻⁶ cm/s to less than 1 ×10⁻⁶ cm/s.

`Cc1ccc(-n2c(C)cc(-c3nnc4n3CCCCC4)c2C)cc1` and `Oc1ccc(-c2nc(C3CC3)nc3c2CCN(CC2CCCCC2)CC3)cc1` cannot be ordered by Papp: greater than 1000 ×10⁻⁶ cm/s for the first, greater than 1000 ×10⁻⁶ cm/s for the second.

Going from `NC(=O)C1CCN(c2nc(-c3cccc([N+](=O)[O-])c3)cs2)CC1` to `N#Cc1ccccc1-c1csc(N2CCC(C(N)=O)CC2)n1`, the Papp falls from 568 ×10⁻⁶ cm/s to 343 ×10⁻⁶ cm/s (1.7-fold).

Compared with `OCCNc1ncnc2c1ncn2[C@@H]1O[C@@H](CO)[C@H](O)[C@@H]1O`, `CC(C)=CCNc1ncnc2nc[nH]c12` is higher in Papp: less than 1 ×10⁻⁶ cm/s for the first, 54.1 ×10⁻⁶ cm/s for the second.

Going from `COc1cncc(Nc2ncc(-c3cccc(N(C)C)c3)c3c2OCC3)c1` to `CN(C)c1cccc(-c2cc(N3CCC(C(N)=O)CC3)ncn2)c1`, the Papp rises from less than 1 ×10⁻⁶ cm/s to 37.8 ×10⁻⁶ cm/s.

Compared with `Cc1noc(/C=C/c2ccccc2F)c1S(=O)(=O)N1CCC(C(=O)Nc2ccc(C#N)cc2)CC1`, `Cc1nc2ccc(NC(=O)c3cc(S(=O)(=O)N(C)c4ccccc4)ccc3Cl)cc2s1` is 8.2-fold higher in Papp: 8.58 ×10⁻⁶ cm/s for the first, 70 ×10⁻⁶ cm/s for the second.

First: COc1cc(/C=C2\C(=O)Nc3ccccc32)ccc1O
Second: COc1ccc(NC(=O)c2c(C)cccc2C)cc1S(=O)(=O)Nc1ccc(Br)cc1
The Papp of the first is higher: greater than 1000 ×10⁻⁶ cm/s for the first, 581 ×10⁻⁶ cm/s for the second.

Going from `CC(=O)c1c(C)[nH]c(C(=O)N(C)C)c1C` to `CC(=O)c1c(C)[nH]c(C(=O)Nc2cccc(S(=O)(=O)N3CCCCCC3)c2)c1C`, the Papp rises from 57.4 ×10⁻⁶ cm/s to greater than 1000 ×10⁻⁶ cm/s.

Going from `CCOc1cc(CNc2ccc(O)cc2)ccc1OCc1ccc(Cl)cc1` to `O=C(Cc1c[nH]c2ncc(-c3ccc(Cl)cc3)cc12)NCc1cccnc1`, the Papp rises from less than 1 ×10⁻⁶ cm/s to greater than 1000 ×10⁻⁶ cm/s.

First: CCC(CC)c1cc([C@H]2CN3CC[C@H]2C[C@@H]3CNC(C)=O)nc(-c2ccncc2)n1
Second: COc1ncccc1-c1cc2[nH]ccc2c(C(=O)NCc2c(C)cc(C)[nH]c2=O)n1
The Papp of the first is 2.1-fold higher: 994 ×10⁻⁶ cm/s for the first, 472 ×10⁻⁶ cm/s for the second.

Going from `N[C@H]1CN(c2c(F)cc3c(=O)c(C(=O)O)cn(C4C[C@@H]4F)c3c2Cl)CC12CC2` (some centres undefined) to `O=C1CCc2ccc(OCCCCN3CCN(c4cccc(Cl)c4Cl)CC3)cc2N1`, the Papp rises from less than 1 ×10⁻⁶ cm/s to greater than 1000 ×10⁻⁶ cm/s.

Going from `O=C(Nc1ccc(S(=O)(=O)Nc2nccs2)cc1)c1ccnc2ccccc12` to `Cc1ccc(S(=O)(=O)Nc2cnccc2C(=O)Nc2nc(-c3cccc(F)c3)cs2)cc1`, the Papp rises from 2.3 ×10⁻⁶ cm/s to 153 ×10⁻⁶ cm/s (67-fold).

First: CCCCCCCc1c(C)nc(N2CCOCC2)[nH]c1=O
Second: Cc1nc2sccn2c(=O)c1S(=O)(=O)Nc1ccc(N2CCN(S(C)(=O)=O)CC2)cc1
The Papp of the first is higher: greater than 1000 ×10⁻⁶ cm/s for the first, 209 ×10⁻⁶ cm/s for the second.

Going from `Cc1cc(C)nc(NC(=S)N2CCN(c3ccc(F)cc3F)CC2)c1` to `O=S(=O)(c1ccccc1)N1CCN(c2nc(-c3ccc(Br)cc3)cs2)CC1`, the Papp falls from greater than 1000 ×10⁻⁶ cm/s to 205 ×10⁻⁶ cm/s.

Going from `CC(C)CN(C[C@@H](O)[C@H](Cc1ccccc1)NC(=O)O[C@@H]1CO[C@H]2OCC[C@H]21)S(=O)(=O)c1ccc(N)cc1` to `CC(C)CN(CC(=O)N(CCCN1CCCC1=O)CC(N)=O)C(=O)CNCCc1ccccc1F`, the Papp falls from 192 ×10⁻⁶ cm/s to 11.6 ×10⁻⁶ cm/s (17-fold).

Going from `O=C(Nc1ccc([S+](=O)([O-])Nc2nccs2)cc1)c1ncn[nH]1` to `Cc1onc(-c2ccccc2)c1C(=O)Nc1nnc(COc2ccc(Cl)cc2)s1`, the Papp rises from less than 1 ×10⁻⁶ cm/s to 247 ×10⁻⁶ cm/s.

Going from `O=C1c2ccccc2C2=Nc3ccccc3SC(c3ccccc3F)C12` (centres undefined) to `CCOc1ccc(N2C(=O)c3n[nH]c(-c4cccs4)c3C2c2cccc(F)c2)cc1` (centres undefined), the Papp rises from less than 1 ×10⁻⁶ cm/s to 82.4 ×10⁻⁶ cm/s.

First: Cn1c(=O)c2[nH]c(=O)[nH]c2n(C)c1=O
Second: CN(C)C(=O)c1nc(-c2ccc(Cl)cc2Cl)c2cnccn12
The Papp of the first is lower: 1.71 ×10⁻⁶ cm/s for the first, greater than 1000 ×10⁻⁶ cm/s for the second.

Going from `CC(Cc1ccc(O)cc1)NCC(O)c1cc(O)cc(O)c1` (centres undefined) to `Cc1ccccc1C(=O)N1CCc2cc(-c3csc(NC(=O)Cc4ccc5c(c4)OCO5)n3)ccc21`, the Papp rises from 1.9 ×10⁻⁶ cm/s to greater than 1000 ×10⁻⁶ cm/s.

Compared with `N#Cc1cccc(-c2nccc(-n3ccnc3)n2)c1`, `CCOC(=O)C1CCN(C(=O)C2(NC(=O)Nc3ccccc3Cl)CCC2)CC1` is 1.8-fold lower in Papp: 492 ×10⁻⁶ cm/s for the first, 266 ×10⁻⁶ cm/s for the second.
